From ChEMBL document CHEMBL3217638, “Synthetic modulators of the retinoic acid receptor-related orphan receptors” (Medchemcomm, 2013)

Columns and labels:
[1] = target: T1, Nuclear receptor ROR-gamma (Homo sapiens) (UniProt P51449); test: Agonist activity at ROR gamma in human CD4+ T cells assessed as IL-17 production at 3 uM by ELISA; assay type: cell-based; settings: T-cell
T1 sequence (whole entry): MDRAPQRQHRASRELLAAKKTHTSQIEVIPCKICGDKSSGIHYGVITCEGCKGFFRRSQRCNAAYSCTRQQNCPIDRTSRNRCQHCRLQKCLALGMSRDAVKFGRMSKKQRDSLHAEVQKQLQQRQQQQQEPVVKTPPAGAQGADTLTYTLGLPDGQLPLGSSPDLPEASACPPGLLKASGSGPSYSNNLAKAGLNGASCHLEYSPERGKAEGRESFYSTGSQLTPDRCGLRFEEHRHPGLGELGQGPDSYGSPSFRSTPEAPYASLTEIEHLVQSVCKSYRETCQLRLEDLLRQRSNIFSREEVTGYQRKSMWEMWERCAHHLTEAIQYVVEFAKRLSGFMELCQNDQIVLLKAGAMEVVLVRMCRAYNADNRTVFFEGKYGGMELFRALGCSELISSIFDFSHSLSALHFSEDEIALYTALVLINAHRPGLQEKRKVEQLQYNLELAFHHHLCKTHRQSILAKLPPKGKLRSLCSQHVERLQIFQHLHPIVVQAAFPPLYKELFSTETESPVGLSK

[2] = target: T2, Nuclear receptor ROR-gamma (Homo sapiens, UniProt P51449); test: Agonist activity at full length human ROR gamma expressed in human Jurkat cells assessed as IL17 promoter activation by luciferase reporter gene assay; assay type: functional, cell-based
T2 sequence (P51449 whole entry): T1 sequence (whole entry)

[3] = target: T1, Nuclear receptor ROR-gamma (Homo sapiens); test: Binding affinity to human ROR gamma ligand binding domain assessed as thermal stability shift by circular dichroism analysis
[4] = target: T3, Nuclear receptor ROR-alpha (Mus musculus) (UniProt P51448); settings: CHO-K1
T3 sequence (whole entry): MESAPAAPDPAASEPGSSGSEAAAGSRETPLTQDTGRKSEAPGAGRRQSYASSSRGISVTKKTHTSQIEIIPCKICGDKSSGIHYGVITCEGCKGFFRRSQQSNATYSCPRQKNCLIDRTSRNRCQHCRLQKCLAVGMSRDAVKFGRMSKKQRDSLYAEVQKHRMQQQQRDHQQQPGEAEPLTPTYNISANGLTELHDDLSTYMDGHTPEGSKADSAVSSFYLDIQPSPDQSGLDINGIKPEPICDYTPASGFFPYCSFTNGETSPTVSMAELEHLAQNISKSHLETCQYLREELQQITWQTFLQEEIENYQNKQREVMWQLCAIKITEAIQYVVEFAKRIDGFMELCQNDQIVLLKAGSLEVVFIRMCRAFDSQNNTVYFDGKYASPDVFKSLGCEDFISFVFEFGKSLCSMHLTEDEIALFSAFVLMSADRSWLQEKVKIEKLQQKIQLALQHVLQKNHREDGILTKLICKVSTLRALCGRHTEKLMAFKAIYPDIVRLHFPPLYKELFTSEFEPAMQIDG
Description: Inverse agonist activity at mouse ROR alpha expressed in CHO-K1 cells after 24 hrs by luciferase reporter gene assay relative to vehicle control response

[5] = target: T4, Nuclear receptor ROR-gamma (Mus musculus) (UniProt P51450); settings: CHO-K1
T4 sequence (whole entry): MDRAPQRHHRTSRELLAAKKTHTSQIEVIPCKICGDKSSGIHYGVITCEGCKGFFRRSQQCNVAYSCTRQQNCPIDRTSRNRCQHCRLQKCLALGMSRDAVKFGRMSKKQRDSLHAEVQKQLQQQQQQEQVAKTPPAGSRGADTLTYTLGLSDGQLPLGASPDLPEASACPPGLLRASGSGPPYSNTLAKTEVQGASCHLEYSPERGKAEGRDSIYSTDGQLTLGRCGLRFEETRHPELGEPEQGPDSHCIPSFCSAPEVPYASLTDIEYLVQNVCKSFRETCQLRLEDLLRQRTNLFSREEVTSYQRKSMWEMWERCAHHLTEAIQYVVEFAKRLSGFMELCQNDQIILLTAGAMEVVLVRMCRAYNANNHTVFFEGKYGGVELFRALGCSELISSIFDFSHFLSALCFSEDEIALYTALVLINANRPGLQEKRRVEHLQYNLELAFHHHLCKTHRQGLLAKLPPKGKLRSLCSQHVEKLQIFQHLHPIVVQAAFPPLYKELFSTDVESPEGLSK
Description: Inverse agonist activity at mouse ROR gamma expressed in CHO-K1 cells after 24 hrs by luciferase reporter gene assay relative to vehicle control response

[6] = target: T5, Oxysterols receptor LXR-alpha (Homo sapiens) (UniProt Q13133); test: Activation of GAL4-fused LXR alpha (unknown origin) expressed in HEK293T cells after 20 hrs relative to T0901317; assay type: cell-based; settings: HEK-293T
T5 sequence (whole entry): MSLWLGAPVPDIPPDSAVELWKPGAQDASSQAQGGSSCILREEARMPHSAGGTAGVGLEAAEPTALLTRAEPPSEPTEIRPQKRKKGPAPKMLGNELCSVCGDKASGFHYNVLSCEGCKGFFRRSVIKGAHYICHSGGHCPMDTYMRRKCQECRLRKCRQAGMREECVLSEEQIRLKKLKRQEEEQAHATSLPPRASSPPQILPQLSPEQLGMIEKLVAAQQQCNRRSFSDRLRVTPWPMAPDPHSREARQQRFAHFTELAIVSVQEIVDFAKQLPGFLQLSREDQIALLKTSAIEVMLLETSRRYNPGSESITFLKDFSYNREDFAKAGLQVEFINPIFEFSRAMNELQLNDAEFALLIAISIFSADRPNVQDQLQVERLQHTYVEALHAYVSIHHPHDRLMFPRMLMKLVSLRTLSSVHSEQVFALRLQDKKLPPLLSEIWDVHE

[7] = target: T6, Nuclear receptor ROR-alpha (Homo sapiens, UniProt P35398); test: Inverse agonist activity at GAL4-fused ROR alpha (unknown origin) expressed in HEK293 cells assessed as inhibition of transcriptional activity after 24 hrs by luciferase reporter gene assay; assay type: cell-based
T6 sequence (P35398 whole entry): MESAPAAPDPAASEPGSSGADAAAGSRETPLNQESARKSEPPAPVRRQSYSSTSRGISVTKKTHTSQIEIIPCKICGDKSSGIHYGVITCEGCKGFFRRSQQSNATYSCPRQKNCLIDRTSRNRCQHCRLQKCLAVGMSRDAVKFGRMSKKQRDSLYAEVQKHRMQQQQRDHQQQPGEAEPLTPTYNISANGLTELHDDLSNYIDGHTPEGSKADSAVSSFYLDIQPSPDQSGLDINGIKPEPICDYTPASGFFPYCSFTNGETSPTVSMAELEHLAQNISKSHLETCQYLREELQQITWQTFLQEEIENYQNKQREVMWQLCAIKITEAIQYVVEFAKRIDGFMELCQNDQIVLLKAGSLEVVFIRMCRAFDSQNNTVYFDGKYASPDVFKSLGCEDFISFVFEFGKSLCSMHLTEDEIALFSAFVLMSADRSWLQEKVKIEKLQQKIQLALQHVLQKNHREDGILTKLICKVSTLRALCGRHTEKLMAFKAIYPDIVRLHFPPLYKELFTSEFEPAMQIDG

[8] = target: T6, Nuclear receptor ROR-alpha; test: Displacement of 25-[3H]hydroxycholesterol from GST-tagged ROR alpha ligand binding domain (unknown origin) expressed in Escherichia coli BL21 gold (DE3) cells by radioligand competition assay
[9] = target: T2, Nuclear receptor ROR-gamma; test: Displacement of 25-[3H]hydroxycholesterol from GST-tagged ROR gamma ligand binding domain (unknown origin) expressed in Escherichia coli BL21 gold (DE3) cells by radioligand competition assay
[10] = target: T2, Nuclear receptor ROR-gamma
Description: Inverse agonist activity at GAL4-fused ROR gamma (unknown origin) expressed in HEK293 cells assessed as inhibition of transcriptional activity after 24 hrs by luciferase reporter gene assay

[11] = target: T2, Nuclear receptor ROR-gamma; test: Activity at human His(GST)-tagged ROR gamma LBD expressed in Escherichia coli BL21 (DE3) cells assessed as receptor-biotinylated SRC1 peptide interaction by TR-FRET assay; assay type: functional
[12] = target: T2, Nuclear receptor ROR-gamma; test: Agonist activity at human His6-tagged ROR gamma ligand binding domain (residues 262 to 507) expressed in Escherichia coli BL21 (DE3) cells assessed as increase in recruitment of coactivator peptide by AlphaScreen biochemical assay; assay type: functional
[13] = Plasma concentration in mouse at 10 mg/kg, ip administered as single dose after 8 hrs; assay type: ADME, organism-based; design: dose 10 mg/kg, route intraperitoneal
[14] = Plasma concentration in mouse at 10 mg/kg, ip administered as single dose after 1 hr; assay type: ADME, organism-based; design: dose 10 mg/kg, route intraperitoneal
[15] = target: T7, Estrogen-related receptor gamma (Homo sapiens, UniProt P62508); test: Binding affinity to human ERR gamma
T7 sequence (P62508 whole entry): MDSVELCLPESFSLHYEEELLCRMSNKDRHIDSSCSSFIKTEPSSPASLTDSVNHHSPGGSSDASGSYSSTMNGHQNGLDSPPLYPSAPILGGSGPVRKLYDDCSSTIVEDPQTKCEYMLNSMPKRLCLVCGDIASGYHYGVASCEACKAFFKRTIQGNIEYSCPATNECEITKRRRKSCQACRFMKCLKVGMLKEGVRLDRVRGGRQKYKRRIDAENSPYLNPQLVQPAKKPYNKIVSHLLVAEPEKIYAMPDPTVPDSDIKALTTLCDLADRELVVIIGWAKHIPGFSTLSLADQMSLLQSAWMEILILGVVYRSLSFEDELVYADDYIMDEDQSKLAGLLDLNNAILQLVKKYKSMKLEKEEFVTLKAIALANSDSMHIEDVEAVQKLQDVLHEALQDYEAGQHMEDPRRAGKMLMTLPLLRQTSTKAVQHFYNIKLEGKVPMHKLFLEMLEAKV

[16] = target: T8, Nuclear receptor ROR-beta (Homo sapiens) (UniProt Q92753); test: Inhibition of ROR beta (unknown origin)-mediated transactivation
T8 sequence (whole entry): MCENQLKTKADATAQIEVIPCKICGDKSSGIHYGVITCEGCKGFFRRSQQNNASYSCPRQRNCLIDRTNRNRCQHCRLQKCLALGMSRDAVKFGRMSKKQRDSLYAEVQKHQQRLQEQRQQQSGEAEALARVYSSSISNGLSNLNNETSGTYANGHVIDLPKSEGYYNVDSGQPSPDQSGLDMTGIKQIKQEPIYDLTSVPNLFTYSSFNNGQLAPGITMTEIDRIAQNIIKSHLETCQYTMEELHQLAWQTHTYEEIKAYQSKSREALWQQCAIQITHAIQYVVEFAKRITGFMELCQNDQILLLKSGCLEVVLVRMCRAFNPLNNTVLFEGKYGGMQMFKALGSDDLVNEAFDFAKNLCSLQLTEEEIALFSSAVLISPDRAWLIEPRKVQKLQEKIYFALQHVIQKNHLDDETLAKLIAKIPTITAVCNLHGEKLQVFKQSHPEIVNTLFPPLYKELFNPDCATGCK

## Cc1cc(C)c2nc(NC(=O)c3sccc3C)sc2c1
[1]
  Activity: 220%
[2]
  EC50: 100 nM
[3]
  melting temperature shift (delta Tm): 3 °C

## Clc1ccc(CS/C(Cn2cncn2)=N\c2ccc(Cl)cc2Cl)cc1
[4]
  IC20: 10000 nM
[5]
  IC20: 3000 nM

## CC(=O)N1CCN(Cc2ccc(-c3ccc(C(O)(C(F)(F)F)C(F)(F)F)cc3)cc2)CC1
[6]
  Activity: < 5%

## CC(=O)Nc1nc(C)c(S(=O)(=O)Nc2ccc(C(O)(C(F)(F)F)C(F)(F)F)cc2)s1
[7]
  EC50: 4000 nM
[8]
  Ki: 172 nM
[9]
  Ki: 111 nM
[10]
  EC50: 4000 nM

## CC(C)CCC[C@@H](C)[C@H]1CC[C@H]2[C@@H]3C(=O)C=C4C[C@@H](O)CC[C@]4(C)[C@H]3CC[C@]12C [7-OXOCHOLESTEROL]
[8]
  Ki: 12 nM

## O=C(O)c1ccc(-c2nn(C(=O)c3c(Cl)cccc3Cl)c3ccccc23)cc1
[11]
  EC50: 11 nM

## CC(C)CC[C@H](O)[C@@H](C)[C@H]1CC[C@H]2[C@@H]3CC=C4C[C@@H](O)CC[C@]4(C)[C@H]3CC[C@]12C
[12]
  EC50: 20 nM

## CC(C)[C@@H](O)CC[C@@H](C)[C@H]1CC[C@H]2[C@@H]3CC=C4C[C@@H](O)CC[C@]4(C)[C@H]3CC[C@]12C
[9]
  Ki: 10 nM

## CC(CO)CCC[C@@H](C)[C@H]1CC[C@H]2[C@@H]3CC=C4C[C@@H](O)CC[C@]4(C)[C@H]3CC[C@]12C (stereo not given in full)
[12]
  EC50: 20 nM

## O=C(Nc1ccc(C(O)(C(F)(F)F)C(F)(F)F)cc1)c1ccc(C(F)(F)F)cc1
[13]
  concentration at 8 h: > 0.8 µM
[14]
  concentration at 1 h: 3.6 µM

## CC(C)(c1ccc(O)cc1)c1ccc(O)cc1 [BISPHENOL A]
[15]
  Kd: 5.5 nM

## CCCOC/C(=N\c1ccc(Cl)cc1C(F)(F)F)n1ccnc1
[4]
  IC20: 10000 nM

## CC1=C(/C=C/C(C)=C/C=C/C(C)=C/C(=O)O)C(C)(C)CCC1
[16]
  Imax: 70%
